Key:
[1] = system: Ng F62 (wildtype [WT]); test: BALB/c vaginal colonization model, Ng F62; type: in vivo, N. gonorrhoeae; conditions: 10 μg intravaginally daily
Experimental: FIG. 13. […] A and B. Efficacy of CMP-Leg5Ac7Ac against Ng F62. 17β-estradiol treated BALB/c mice were infected with i) Ng F62 (wildtype [WT]) and treated (CMP-Leg5Ac7Ac, 10 μg intravaginally, daily), ii) Ng F62 WT→saline (No treatment) or iii) Ng F62 Δlst (cannot sialylate LOS), untreated. Ng load in the vagina was enumerated daily. A. Time to clearance. B. Area under the curve (AUC; each point represents the AUC of CFU vs. time for each mouse). Horizontal bar, geometric mean. C and D. Efficacy of CMP-Leg5Ac7Ac vs ceftriaxone-resistant isolate H041. Time to clearance (C) and AUC analysis (D) are described above.
The efficacy of CMP-Leg5Ac7Ac against Ng was tested in the BALB/c vaginal colonization model (FIG. 13) (51). Three groups of 17β-estradiol treated BALB/c mice (10 mice/group) were infected as follows: i) WT F62→CMP-Leg5Ac7Ac (10 μg intravaginally daily), ii) WT F62→saline control (‘untreated’) and iii) F62 List (cannot sialylate LOS)→untreated.

[2] = type: physicochemical
Text: Importantly, Neu5Ac9Az/Neu5Ac9Ac and Leg5Ac7Ac differ from Neu5Ac at carbon 9 and carbons 7 and 9, respectively. As well, Neu5Gc8Me differs from Neu5Gc at carbon 8. As such, carbons 7, 8 and 9 within the exocyclic moiety of nonulosonate sugars appear to play a critical role in the avoidance of serum mediated killing by N. gonorrhoeae, as evidenced by the enhanced serum-mediated killing with CMP-Neu5Ac9Az, CMP-Neu5Ac9Ac, CMP-Leg5Ac7Ac and CMP-Neu5Gc8Me, that was not observed with either CMP-Neu5Ac or CMP-Neu5Gc only feeding controls.

Row | Compound | Ng infection (time to clearance, AUC of CFU vs. time) ([1]; 17β-estradiol treated BALB/c mice, vs saline) | sensitivity to human complement of bacteria recovered directly from treated mice ([1]; BALB/c mice, not shown) | stability of the preparation [2]
1 | 5,7-diacetamido-3,5,7,9-tetradeoxy-D-glycero-D-galacto-nonulosonic acid [CMP-Leg5Ac7Ac] | significantly attenuated Ng infection | became sensitive to human complement | –
2 | CC(=O)N[C@H]1[C@H]([C@H](O)[C@H](O)COC(C)=O)OC(OP(=O)(O)OC[C@H]2O[C@@H](n3ccc(N)nc3=O)[C@H](O)[C@@H]2O)(C(=O)O)C[C@@H]1O (stereo partly drawn) [CMP-Neu5Ac9Ac, CMP-5-acetamido-9-O-acetyl-3,5-dideoxy-D-glycero-D-galacto-nonulosonic acid] | – | – | spontaneous breakdown of the 9OAc group
